Data reported in US9862711B2, “Pyrazine derivatives as phosphatidylinositol 3-kinase inhibitors” (NOVARTIS AG, priority 2014, dated 2018).

Columns and labels:
Assay type in all cases: cell-based
[1] = target: PI 3-kinase alpha (Homo sapiens (Human), UniProt P42336); assay: Cellular p-Akt (S473) SureFire assay, Rat-1_PI3Kalpha cells (Assay H); settings: p-AKT (Ser473) in Rat-1 cells expressing myr-HA-hp110 alpha, 1 h compound; read-out: Assay H PI3Kα IC50
From the text: (§1) Cellular Assays for PI 3-Kinase Alpha (H), Beta (I) and Delta (J)
(§2) AlphaScreen (Amplified Luminescent Proximity Homogeneous Assay, ALPHA, Perkin Elmer) is a non-radioactive bead-based proximity assay technology to study biomolecular interactions in a homogenous microtiter plate format. The brand name SureFire denotes AlphaScreen assays that are adapted to quantify the phosphorylation of endogenous cellular proteins in cell lysates, by using matched antibody pairs, which consist of an anti-phospho-kinase and an anti-kinase antibody. The assay allows characterization of kinase signaling in cells as well as measurement of kinase inhibitor effects.
(§3) Rat-1 cell lines stably overexpressing activated PI 3-kinase class I isoforms Rat-1 pBABEpuro Myr-HA-hp110 delta clone 5 (Rat-1_PI3Kdelta) and Rat-1 pBABEpuro Myr-HA-hp110 alpha clone 6 (Rat-1_PI3Kalpha) and Rat-1 pBABEpuro Myr-HA-hp110 beta (Rat-1_PI3beta) were cultivated in complete growth medium (DMEM high glucose, 10% (v/v) fetal bovine serum, 1% (v/v) MEM NEAA, 10 mM HEPES, 2 mM L-glutamine, puromycin (10 μg/mL for Rat-1_PI3Kdelta and Rat-1_PI3Kalpha, 4 ug/mL for Rat-1_PI3beta), 1% (v/v) Pen/Strep) to 90% confluency at 37° C./5% CO2/90% humidity in a humidified CO2 incubator and were split twice a week. The following materials were used for p-AKT(5473) detection in Rat-1 cell lysates: Dulbecco's modified Eagle's medium (DMEM) high glucose (Gibco Invitrogen, Basel, Switzerland, Cat. No. 41965), heat inactivated fetal bovine serum, qualified (HI FBS; Gibco Invitrogen, Basel, Switzerland, Lot. No. 16140), MEM non essential amino acids (NEAA; Gibco Invitrogen, Basel, Switzerland, Cat. No. 11140), HEPES (Gibco Invitrogen, Basel, Switzerland, Cat. No. 15630), penicillin/streptomycin (Pen/Strep, 100×; Gibco Invitrogen, Basel, Switzerland, Cat. No. 15140-122), L-glutamine (Gibco Invitrogen, Basel, Switzerland, Cat. No. 25030), puromycin (Sigma Aldrich, Buchs, Switzerland, Cat. No. P9620), DMSO (MERCK, Dietikon, Switzerland, Cat. No. 8.02912.2500), H2O, MilliQ-H2O unless otherwise stated (MILLIPORE QGARDOOR1, Millipore, Zug, Switzerland), bovine serum albumine (BSA; Sigma Aldrich, Buchs, Switzerland Cat. No. A8412), SureFire p-Akt 1/2 (Ser473) Assay Kit (Perkin Elmer, Schwerzenbach, Switzerland, Cat. No. TGRAS50K).
(§4) The p-Akt (S473) SureFire assay measures the phosphorylation of endogenous cellular Akt 1/2 at Ser473 in cell lysates. Using Rat-1 cells stably expressing myr-HA-tagged versions of the human PI3Kdelta, PI3Kalpha, or PI3Kbeta p110 catalytic subunit isoforms, the assay was developed as a two-plate protocol in a 384-well format.
(§5) For compound testing, the cells were seeded at a density of 4000 (Rat-1_PI3Kdelta), 7500 (Rat-1_PI3Kalpha), or 6200 (Rat-1_PI3Kbeta) cells in 20 μl complete growth medium into cell culture treated 384-well plates and were grown at 37° C./5% CO2/90% humidity for 24 h. Shortly before compound transfer, the complete medium was removed, 30 μl assay buffer (DMEM high glucose, 1×MEM NEAA, 10 mM HEPES, 2 mM L-glutamine, 0.1% (w/v) BSA) was added and 10 μl of the compound predilutions were transferred to the cells. After treatment with compound for 1 h, the cells were lysed by the addition of 20 μl lysis buffer supplemented with 0.24% (w/v) BSA. Detection of p-AKT (Ser473) was performed with the SureFire p-Akt 1/2 (Ser473) Assay Kit according to the manufacturer's instructions using 5 ul of cell lysate in a total detection volume of 12 μl.
(§6) IC50 values of the percentage inhibition of each compound at 8 concentrations (usually 10, 3.0, 1.0, 0.3, 0.1, 0.030, 0.010 and 0.003 μM) n=2 were derived by fitting a sigmoidal dose-response curve to a plot of assay readout over inhibitor concentration as described. All fits were performed with the program XLfit4 (ID Business Solutions, Guildford, UK).

[2] = target: PI 3-kinase beta (Homo sapiens (Human), UniProt P42338); assay: Cellular p-Akt (S473) SureFire assay, Rat-1_PI3Kbeta cells (Assay I); settings: p-AKT (Ser473) in Rat-1 cells expressing myr-HA-hp110 beta, 1 h compound; read-out: Assay I PI3Kβ IC50
PI 3-kinase beta, sequence (P42338 whole entry): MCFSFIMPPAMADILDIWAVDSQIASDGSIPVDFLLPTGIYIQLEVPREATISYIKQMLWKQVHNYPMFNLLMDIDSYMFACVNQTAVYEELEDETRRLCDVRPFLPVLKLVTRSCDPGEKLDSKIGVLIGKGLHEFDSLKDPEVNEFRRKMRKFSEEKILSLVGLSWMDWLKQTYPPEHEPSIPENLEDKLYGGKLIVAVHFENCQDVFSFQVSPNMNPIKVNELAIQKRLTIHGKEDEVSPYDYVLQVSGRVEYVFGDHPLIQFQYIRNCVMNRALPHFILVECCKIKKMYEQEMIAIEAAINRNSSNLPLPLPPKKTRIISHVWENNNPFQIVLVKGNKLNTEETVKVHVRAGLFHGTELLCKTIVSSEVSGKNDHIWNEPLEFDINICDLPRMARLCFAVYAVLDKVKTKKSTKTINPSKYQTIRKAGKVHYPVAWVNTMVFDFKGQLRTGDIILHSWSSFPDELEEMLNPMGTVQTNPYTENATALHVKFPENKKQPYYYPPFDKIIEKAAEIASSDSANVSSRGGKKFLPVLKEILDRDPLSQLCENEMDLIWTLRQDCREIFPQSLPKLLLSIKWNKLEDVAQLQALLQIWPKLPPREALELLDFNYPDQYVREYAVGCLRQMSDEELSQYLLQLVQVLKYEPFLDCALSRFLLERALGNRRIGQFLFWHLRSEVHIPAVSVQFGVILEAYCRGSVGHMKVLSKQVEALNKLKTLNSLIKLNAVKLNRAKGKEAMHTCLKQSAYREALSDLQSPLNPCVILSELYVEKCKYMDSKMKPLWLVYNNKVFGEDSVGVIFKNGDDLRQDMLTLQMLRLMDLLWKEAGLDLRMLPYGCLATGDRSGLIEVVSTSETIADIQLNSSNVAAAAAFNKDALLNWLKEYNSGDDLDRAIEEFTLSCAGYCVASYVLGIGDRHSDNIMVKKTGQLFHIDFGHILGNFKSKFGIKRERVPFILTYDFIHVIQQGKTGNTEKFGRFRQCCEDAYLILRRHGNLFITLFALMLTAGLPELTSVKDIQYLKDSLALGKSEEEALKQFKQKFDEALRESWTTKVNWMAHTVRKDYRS
PI 3-kinase beta, sequence (Q63787 whole entry partner): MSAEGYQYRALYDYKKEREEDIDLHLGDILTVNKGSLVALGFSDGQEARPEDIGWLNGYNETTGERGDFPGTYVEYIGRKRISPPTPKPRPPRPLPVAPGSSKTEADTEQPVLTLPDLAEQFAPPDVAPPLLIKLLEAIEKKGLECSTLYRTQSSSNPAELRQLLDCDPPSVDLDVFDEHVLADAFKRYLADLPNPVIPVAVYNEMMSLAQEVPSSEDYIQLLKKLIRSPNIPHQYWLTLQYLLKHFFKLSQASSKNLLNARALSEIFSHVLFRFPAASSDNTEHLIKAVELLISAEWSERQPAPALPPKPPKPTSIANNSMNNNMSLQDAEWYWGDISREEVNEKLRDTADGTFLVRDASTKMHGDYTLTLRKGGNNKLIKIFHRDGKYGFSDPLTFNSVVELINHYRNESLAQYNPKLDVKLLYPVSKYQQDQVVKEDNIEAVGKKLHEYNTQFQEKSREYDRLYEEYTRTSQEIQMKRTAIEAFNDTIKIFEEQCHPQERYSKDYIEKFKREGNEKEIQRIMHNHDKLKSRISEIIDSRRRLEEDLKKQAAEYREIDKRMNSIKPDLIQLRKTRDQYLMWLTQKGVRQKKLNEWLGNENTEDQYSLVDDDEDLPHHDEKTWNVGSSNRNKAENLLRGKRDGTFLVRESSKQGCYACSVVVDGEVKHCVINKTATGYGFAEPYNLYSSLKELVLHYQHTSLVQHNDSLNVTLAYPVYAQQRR
From the text: as §1, §2, §3, §4, §5, §6

[3] = target: PI 3-kinase delta (Homo sapiens (Human), UniProt O00329); assay: Cellular p-Akt (S473) SureFire assay, Rat-1_PI3Kdelta cells (Assay J); settings: p-AKT (Ser473) in Rat-1 cells expressing myr-HA-hp110 delta, 1 h compound; read-out: Assay J PI3Kδ IC50
PI 3-kinase delta, sequence (O00329 whole entry): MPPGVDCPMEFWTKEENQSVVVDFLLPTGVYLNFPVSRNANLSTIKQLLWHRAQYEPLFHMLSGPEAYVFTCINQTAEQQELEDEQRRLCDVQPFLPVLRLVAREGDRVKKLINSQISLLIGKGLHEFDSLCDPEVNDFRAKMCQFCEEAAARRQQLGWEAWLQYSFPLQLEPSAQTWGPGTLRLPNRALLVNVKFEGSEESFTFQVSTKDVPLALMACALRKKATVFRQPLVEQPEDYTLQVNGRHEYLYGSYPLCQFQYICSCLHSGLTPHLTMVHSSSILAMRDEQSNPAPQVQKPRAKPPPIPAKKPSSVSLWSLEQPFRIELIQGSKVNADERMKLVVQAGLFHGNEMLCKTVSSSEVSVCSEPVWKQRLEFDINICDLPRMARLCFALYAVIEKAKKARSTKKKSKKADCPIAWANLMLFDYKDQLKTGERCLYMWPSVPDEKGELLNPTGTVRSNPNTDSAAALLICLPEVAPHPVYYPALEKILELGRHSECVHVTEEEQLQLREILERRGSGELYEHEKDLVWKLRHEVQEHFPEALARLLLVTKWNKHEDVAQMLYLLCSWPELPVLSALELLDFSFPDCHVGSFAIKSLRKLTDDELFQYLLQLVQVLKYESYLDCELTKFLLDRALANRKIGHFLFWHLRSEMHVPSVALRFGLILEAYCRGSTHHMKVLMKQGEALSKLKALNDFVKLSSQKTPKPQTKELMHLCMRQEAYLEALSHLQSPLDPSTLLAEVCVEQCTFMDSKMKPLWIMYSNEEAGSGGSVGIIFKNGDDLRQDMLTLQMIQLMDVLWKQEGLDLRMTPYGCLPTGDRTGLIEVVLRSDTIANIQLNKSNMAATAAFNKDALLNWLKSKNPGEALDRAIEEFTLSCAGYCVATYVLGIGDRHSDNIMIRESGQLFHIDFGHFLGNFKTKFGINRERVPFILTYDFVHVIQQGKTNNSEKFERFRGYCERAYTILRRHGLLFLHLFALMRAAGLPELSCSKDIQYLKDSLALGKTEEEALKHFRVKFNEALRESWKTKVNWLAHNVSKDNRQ
PI 3-kinase delta, sequence (Q63787 whole entry partner): as the sequence (Q63787 whole entry partner) above
From the text: as §1, §2, §3, §4, §5, §6

PI 3-kinase alpha, sequence (P42336 whole entry): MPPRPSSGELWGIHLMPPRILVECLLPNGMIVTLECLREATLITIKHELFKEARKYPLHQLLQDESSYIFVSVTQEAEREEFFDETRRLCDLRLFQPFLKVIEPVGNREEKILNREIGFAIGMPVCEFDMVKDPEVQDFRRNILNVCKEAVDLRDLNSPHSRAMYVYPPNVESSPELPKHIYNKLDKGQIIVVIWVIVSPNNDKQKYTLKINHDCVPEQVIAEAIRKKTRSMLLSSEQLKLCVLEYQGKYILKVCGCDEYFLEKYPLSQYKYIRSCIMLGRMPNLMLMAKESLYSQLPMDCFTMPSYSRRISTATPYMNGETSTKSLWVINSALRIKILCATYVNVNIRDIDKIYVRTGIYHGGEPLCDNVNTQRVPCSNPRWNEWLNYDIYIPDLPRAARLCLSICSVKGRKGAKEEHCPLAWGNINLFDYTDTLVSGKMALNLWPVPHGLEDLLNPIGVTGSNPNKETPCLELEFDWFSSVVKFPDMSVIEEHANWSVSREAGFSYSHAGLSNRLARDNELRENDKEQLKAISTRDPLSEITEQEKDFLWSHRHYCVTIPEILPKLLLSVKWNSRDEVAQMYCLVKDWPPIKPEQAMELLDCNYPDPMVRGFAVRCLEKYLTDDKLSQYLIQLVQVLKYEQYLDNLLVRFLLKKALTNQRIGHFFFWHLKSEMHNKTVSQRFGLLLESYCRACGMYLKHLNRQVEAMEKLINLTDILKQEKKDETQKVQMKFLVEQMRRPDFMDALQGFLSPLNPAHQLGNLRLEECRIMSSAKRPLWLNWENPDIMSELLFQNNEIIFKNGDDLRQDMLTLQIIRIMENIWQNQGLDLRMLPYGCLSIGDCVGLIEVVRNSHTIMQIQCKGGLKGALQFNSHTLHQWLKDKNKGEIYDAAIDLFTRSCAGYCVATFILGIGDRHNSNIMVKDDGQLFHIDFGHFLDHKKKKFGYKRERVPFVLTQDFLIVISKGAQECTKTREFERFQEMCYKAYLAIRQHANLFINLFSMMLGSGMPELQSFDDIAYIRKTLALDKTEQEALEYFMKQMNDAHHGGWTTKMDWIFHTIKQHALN
PI 3-kinase alpha, sequence (Q63787 whole entry partner): as the sequence (Q63787 whole entry partner) above

| IC50 [1] | IC50 [2] | IC50 [3] | SMILES |
| --- | --- | --- | --- |
| 450 nM | 0.784 µM | 367 nM | Cc1ccc(S(=O)(=O)NCC(C)(C)O)cc1-c1cncc(-c2cn(C)nc2C)n1 [Example 2, 3-[6-(1,3-Dimethyl-1H-pyrazol-4-yl)-pyrazin-2-yl]-N-(2-hydroxy-2-methyl-propyl)-4-methyl-benzenesulfonamide] |
| 838 nM | 9.42 µM | 540 nM | Cc1ncc(-c2cncc(-c3cc(S(=O)(=O)N[C@H]4CC[C@H](O)CC4)ccc3C)n2)s1 [Example 5, Trans N-(4-Hydroxycyclohexyl)-4-methyl-3-(6-(2-methylthiazol-5-yl)pyrazin-2-yl)benzenesulfonamide] |
| 1020 nM | 3.18 µM | 1370 nM | Cc1ccc(S(=O)(=O)NCCC(C)(C)O)cc1-c1cncc(-c2cn(C)nc2C)n1 [Example 3, 3-[6-(1,3-Dimethyl-1H-pyrazol-4-yl)-pyrazin-2-yl]-N-(3-hydroxy-3-methyl-butyl)-4-methyl-benzenesulfonamide] |
| 1700 nM | > 10 µM | 1050 nM | Cc1ccc(S(=O)(=O)N[C@H]2CC[C@H](O)CC2)cc1-c1cncc(-c2cccnc2)n1 [Example 11, Trans N-(4-Hydroxy-cyclohexyl)-4-methyl-3-(6-pyridin-3-yl-pyrazin-2-yl)-benzenesulfonamide] |
| 293 nM | 0.833 µM | 285 nM | Cc1ccc(S(=O)(=O)NCC2(C)COC2)cc1-c1cncc(-c2cn(C)nc2C)n1 [Example 4, Trans 3-[6-(1,3-Dimethyl-1H-pyrazol-4-yl)-pyrazin-2-yl]-4-methyl-N-(3-methyl-oxetan-3-ylmethyl)-benzenesulfonamide] |
| 2480 nM | 6.98 µM | 1680 nM | Cc1ccc(S(=O)(=O)NCCC(C)(C)O)cc1-c1cncc(-c2cnn(CCN3CCOCC3)c2)n1 [Example 9, N-(3-Hydroxy-3-methyl-butyl)-4-methyl-3-{6-[1-(2-morpholin-4-yl-ethyl)-1H-pyrazol-4-yl]-pyrazin-2-yl}-benzenesulfonamide] |
| 3090 nM | 3.83 µM | 771 nM | Cc1ccc(S(=O)(=O)NCCC(C)(C)O)cc1-c1cncc(-c2cn(CCN3CCOCC3)nc2C)n1 [Example 10, N-(3-Hydroxy-3-methyl-butyl)-4-methyl-3-{6-[3-methyl-1-(2-morpholin-4-yl-ethyl)-1H-pyrazol-4-yl]-pyrazin-2-yl}-benzenesulfonamide] |
